In patent US9868727B2, “Factor XIa inhibitors” (Merck Sharp & Dohme Corp., priority 2014, dated 2018):

Columns and labels:
[1] = biological target: T1, purified human Factor XIa (Homo sapiens, UniProt P03951); test: Factor XIa Assay; type: biochemical; conditions: fluorogenic substrate Z-Gly-Pro-Arg-AFC 100 μM, 40 pM enzyme, pH 7.4, read-out: F11a IC50
T1 construct: purified human Factor XIa; purchased Sekisui Diagnostics
Procedure: The effectiveness of a compound of the present invention as an inhibitor of Coagulation Factor XIa can be determined using a relevant purified serine protease, and an appropriate synthetic substrate. The rate of hydrolysis of the chromogenic or fluorogenic substrate by the relevant serine protease was measured both in the absence and presence of compounds of the present invention. Assays were conducted at room temperature or at 37° C. […] A decrease in the rate of fluorescence change in the presence of inhibitor is indicative of enzyme inhibition. Such methods are known to one skilled in the art. […]
Factor XIa determinations were made in 50 mM HEPES buffer at pH 7.4 containing 150 mM NaCl, 5 mM CaCl2, and 0.1% PEG 8000 (polyethylene glycol; JT Baker or Fisher Scientific). Determinations were made using purified human Factor XIa at a final concentration of 40 pM (Sekisui Diagnostics) and he synthetic substrate, Z-Gly-Pro-Arg-AFC, TFA salt (Sigma #C0980) at a concentration of 100 μM.
Activity assays were performed by diluting a stock solution of substrate at least tenfold to a final concentration ≦0.1 Km into a solution containing enzyme or enzyme equilibrated with inhibitor. Times required to achieve equilibration between enzyme and inhibitor were determined in control experiments. Initial velocities of product formation in the absence (VO) or presence of inhibitor (Vi) were measured. Assuming competitive inhibition, and that unity is negligible compared Km/[S], [I]/e, and [I]/e (where [S], [I], and e respectively represent the total concentrations, of substrate, inhibitor and enzyme), the equilibrium constant (Ki) for dissociation of the inhibitor from the enzyme can be obtained from the dependence of VO/Vi on [I] shown in the following equation.

[2] = biological target: T2, purified Human plasma kallikrein (Homo sapiens, UniProt P03952); test: Kallikrein Assay; type: biochemical; conditions: Plasma Kallekrein IC50; fluorogenic substrate Acetyl-K-P-R-AFC, 0.5 nM enzyme, pH 7.4; read-out: PK IC50
T2 construct: yields a heavy chain (371 amino acids) and a light chain (248 amino acids); purchased Enzyme Research Laboratories
T2 sequence (P03952 391-638 limits assumed): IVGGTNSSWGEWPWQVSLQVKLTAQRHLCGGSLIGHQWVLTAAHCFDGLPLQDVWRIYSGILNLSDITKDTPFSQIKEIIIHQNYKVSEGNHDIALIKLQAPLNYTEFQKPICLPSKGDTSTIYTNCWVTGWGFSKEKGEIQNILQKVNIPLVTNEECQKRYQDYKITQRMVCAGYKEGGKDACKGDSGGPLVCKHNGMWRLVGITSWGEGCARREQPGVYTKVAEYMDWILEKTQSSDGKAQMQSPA
T2 sequence (P03952 20-390 partner limits assumed): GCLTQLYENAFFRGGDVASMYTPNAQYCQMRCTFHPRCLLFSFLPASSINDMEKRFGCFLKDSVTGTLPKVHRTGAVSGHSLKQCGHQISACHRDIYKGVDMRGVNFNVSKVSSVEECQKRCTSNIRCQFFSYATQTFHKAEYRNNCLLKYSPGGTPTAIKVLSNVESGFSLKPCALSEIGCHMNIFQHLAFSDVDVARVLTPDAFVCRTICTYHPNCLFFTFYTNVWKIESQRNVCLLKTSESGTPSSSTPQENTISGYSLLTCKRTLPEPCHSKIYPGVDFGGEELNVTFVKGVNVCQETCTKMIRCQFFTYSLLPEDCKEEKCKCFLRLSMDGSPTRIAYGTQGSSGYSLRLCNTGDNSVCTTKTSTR
Procedure: The effectiveness of a compound of the present invention as an inhibitor of Kallikrein can be determined using a relevant purified serine protease, and an appropriate synthetic substrate. The rate of hydrolysis of the chromogenic or fluorogenic substrate by the relevant serine protease was measured both in the absence and presence of compounds of the present invention. Assays were conducted at room temperature or at 37° C. […] A decrease in the rate of fluorescence change in the presence of inhibitor is indicative of enzyme inhibition. Such methods are known to one skilled in the art. The results of this assay are expressed as the inhibitory constant, K1.
Kallikrein determinations were made in 50 mM HEPES buffer at pH 7.4 containing 150 mM NaCl, 5 mM CaCl2, and 0.1% PEG 8000 (polyethylene glycol; Fisher Scientific). Determinations were made using purified Human plasma kallikrein at a final concentration of 0.5 nM (Enzyme Research Laboratories) and the synthetic substrate, Acetyl-K—P—R-AFC (Sigma # C6608) at a concentration of […].
Times required to achieve equilibration between enzyme and inhibitor were determined in control experiments. The reactions were performed under linear progress curve conditions and fluorescence increase measured at 405 Ex/510 Em nm. […] IC50 was determined by inflection point from a four parameter logistic curve fit. Ki was calculated using the Cheng Prusoff equation, Ki=IC50/(1+([S]/Km)).

T1 sequence (P03951 388-625 limits assumed): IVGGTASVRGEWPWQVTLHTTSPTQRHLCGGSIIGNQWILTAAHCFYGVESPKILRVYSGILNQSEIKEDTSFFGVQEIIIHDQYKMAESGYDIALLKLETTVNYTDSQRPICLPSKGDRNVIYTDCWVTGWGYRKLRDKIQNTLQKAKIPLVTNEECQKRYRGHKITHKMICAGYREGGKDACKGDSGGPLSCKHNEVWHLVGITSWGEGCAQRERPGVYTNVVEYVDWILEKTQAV
T1 sequence (P03951 19-387 partner limits assumed): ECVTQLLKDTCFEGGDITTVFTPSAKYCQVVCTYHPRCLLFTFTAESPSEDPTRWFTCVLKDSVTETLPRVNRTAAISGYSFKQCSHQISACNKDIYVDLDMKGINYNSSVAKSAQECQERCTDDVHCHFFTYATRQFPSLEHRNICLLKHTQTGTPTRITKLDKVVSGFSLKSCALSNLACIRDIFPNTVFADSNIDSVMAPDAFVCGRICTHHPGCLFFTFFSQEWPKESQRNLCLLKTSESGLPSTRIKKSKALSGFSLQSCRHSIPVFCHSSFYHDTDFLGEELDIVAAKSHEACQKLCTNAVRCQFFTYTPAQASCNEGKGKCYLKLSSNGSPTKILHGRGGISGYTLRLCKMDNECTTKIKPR

| Compound | IC50 [1] [nM] | IC50 [2] [nM] |
| --- | --- | --- |
| Nc1ccc(-c2cnc(C(CC3CC3)c3ccc(-c4cc(Cl)ccc4-n4cnnn4)c[n+]3[O-])[nH]2)c(Cl)n1 (single isomer, unassigned) [Example 47, 6-chloro-5-[2-(1-{5-[5-chloro-2-(1H-tetrazol-1-yl)phenyl]-1-oxidopyridin-2-yl}-2-cyclopropylethyl)-1H-imidazol-5-yl]pyridin-2-amine] | 0.32 | 80 |
| Nc1ccc(-c2c[nH]c(C(CC3CC3)c3ccc(-c4cc(Cl)ccc4-n4cnnn4)c[n+]3[O-])n2)cn1 (single isomer, unassigned) [Example 49] | 19.5 | 2120 |
| Nc1ccc(-c2c[nH]c(C(CC3CC3)c3ccc(-c4cc(Cl)ccc4-n4cnnn4)c[n+]3[O-])n2)cn1 (single isomer, unassigned) [Example 50] | 1.08 | 228 |
| O=C(O)c1cccc(-c2cnc(C(CC3CC3)c3ccc(-c4cc(Cl)ccc4-n4cnnn4)c[n+]3[O-])[nH]2)c1F (single isomer, unassigned) [Example 51, 3-[2-(1-{5-[5-chloro-2-(1H-tetrazol-1-yl)phenyl]-1-oxidopyridin-2-yl}-2-cyclopropylethyl)-1H-imidazol-5-yl]-2-fluorobenzoic acid] | 0.87 | 80 |
| O=C(O)c1cccc(-c2c[nH]c(C(CC3CC3)c3ccc(-c4cc(Cl)ccc4-n4cnnn4)c[n+]3[O-])n2)c1 (single isomer, unassigned) [Example 53] | 0.9 | 62 |
| O=C(O)c1ccc(-c2cnc(C(CC3CC3)c3ccc(-c4cc(Cl)ccc4-n4cnnn4)c[n+]3[O-])[nH]2)cc1 (single isomer, unassigned) [Example 56] | 11 | 241 |
| O=C(O)c1scc(-c2cnc(C(CC3CC3)c3ccc(-c4cc(Cl)ccc4-n4cnnn4)c[n+]3[O-])[nH]2)c1F (single isomer, unassigned) [Example 57, 2-(1-(5-(5-carboxy-4-fluorothiophen-3-yl)-1H-imidazol-2-yl)-2-cyclopropylethyl)-5-(5-chloro-2-(1H-tetrazol-1-yl)phenyl)pyridine 1-oxide] | 1.5 | 58 |
| O=C(O)c1scc(-c2cnc(C(CC3CC3)c3ccc(-c4cc(Cl)ccc4-n4cnnn4)c[n+]3[O-])[nH]2)c1F (single isomer, unassigned) [Example 58, 2-(1-(5-(5-carboxy-4-fluorothiophen-3-yl)-1H-imidazol-2-yl)-2-cyclopropylethyl)-5-(5-chloro-2-(1H-tetrazol-1-yl)phenyl)pyridine 1-oxide] | 11.8 | 1050 |
| NC(=O)c1scc(-c2cnc(C(CC3CC3)c3ccc(-c4cc(Cl)ccc4-n4cnnn4)c[n+]3[O-])[nH]2)c1F (single isomer, unassigned) [Example 60, 2-(1-(5-(5-carbamoyl-4-fluorothiophen-3-yl)-1H-imidazol-2-yl)-2-cyclopropylethyl)-5-(5-chloro-2-(1H-tetrazol-1-yl)phenyl)pyridine 1-oxide] | 4.9 | 76 |
| COC(=O)c1scc(-c2cnc(C(CC3CC3)c3ccc(-c4cc(Cl)ccc4-n4cnnn4)c[n+]3[O-])[nH]2)c1F (single isomer, unassigned) [Example 61, Methyl 4-[2-(1-{5-[5-chloro-2-(1H-tetrazol-1-yl)phenyl]-1-oxidopyridin-2-yl}-2-cyclopropylethyl)-1H-imidazol-5-yl]-3-fluorothiophene-2-carboxylate] | 53 | 343 |
| COC(=O)Nc1ccc(-c2cnc(C(CC3CC3)c3ccc(-c4cc(Cl)ccc4-c4cnco4)c[n+]3[O-])[nH]2)cc1 (single isomer, unassigned) [Example 69] | 48 | 358 |
| COC(=O)Nc1ccc(-c2[nH]c(C(CC3CC3)c3ccc(-c4cc(Cl)ccc4-n4cnnn4)c[n+]3[O-])nc2C)cc1 (single isomer, unassigned) [Example 76, methyl {4-[2-(1-{5-[5-chloro-2-(1H-tetrazol-1-yl)phenyl]-1-oxidopyridin-2-yl}-2-cyclopropylethyl)-4-methyl-1H-imidazol-5-yl]phenyl}carbamate] | 36.8 | 802 |
| COC(=O)Nc1ccc(-c2[nH]c(C(CC3CC3)c3ccc(-c4cc(Cl)ccc4-n4cnnn4)c[n+]3[O-])nc2C)cc1 (single isomer, unassigned) [Example 77, methyl {4-[2-(1-{5-[5-chloro-2-(1H-tetrazol-1-yl)phenyl]-1-oxidopyridin-2-yl}-2-cyclopropylethyl)-4-methyl-1H-imidazol-5-yl]phenyl}carbamate] | 1.52 | 48 |
| COC(=O)Nc1ccc(-c2[nH]c(C(CC3CC3)c3ccc(-c4cc(Cl)ccc4-n4cnnn4)c[n+]3[O-])nc2Cl)cc1 (single isomer, unassigned) [Example 79, 5-(5-chloro-2-(1H-tetrazol-1-yl)phenyl)-2-(1-(4-chloro-5-(4-((methoxycarbonyl)amino)phenyl)-1H-imidazol-2-yl)-2-cyclopropylethyl)pyridine 1-oxide] | 0.5 | 24 |
| COC(=O)Nc1ccc(-c2nc([C@H](Cc3ccccc3)c3ccc(-c4cc(Cl)ccc4-n4cnnn4)c[n+]3[O-])[nH]c2Cl)cc1 [Example 1, (R) 5-(5-Chloro-2-(1H-tetrazol-1-yl)phenyl)-2-(1-(5-chloro-4-(4-((methoxycarbonyl)amino)phenyl)-1H-imidazol-2-yl)-2-phenylethyl)pyridine 1-oxide] | 1.34 | 1.52 |
| COC(=O)Nc1ccc(-c2nc([C@@H](Cc3ccccc3)c3ccc(-c4cc(Cl)ccc4-n4cnnn4)c[n+]3[O-])[nH]c2Cl)cc1 [Example 2, (S) 5-(5-Chloro-2-(1H-tetrazol-1-yl)phenyl)-2-(1-(5-chloro-4-(4-((methoxycarbonyl)amino)phenyl)-1H-imidazol-2-yl)-2-phenylethyl)pyridine 1-oxide] | 2.82 | 76.1 |
| COC(=O)Nc1ccc(-c2cnc([C@H](Cc3ccccc3)c3ccc(-c4c(-n5cnnn5)ccc(Cl)c4F)c[n+]3[O-])[nH]2)cc1 [Example 23] | 1.04 | 1.54 |
| COC(=O)Nc1ccc(-c2cnc([C@@H](Cc3ccccc3)c3ccc(-c4c(-n5cnnn5)ccc(Cl)c4F)c[n+]3[O-])[nH]2)cc1 [Example 24] | 2.36 | 88.7 |
| COC(=O)Nc1ccc(-c2cnc([C@H](Cc3ccccc3)c3ccc(-c4cc(Cl)ccc4-c4cnco4)c[n+]3[O-])[nH]2)cc1 [Example 25] | 3.31 | 24.1 |
